Tests used:
human STING R95E = human STING R95E (Homo sapiens, UniProt Q86WV6, R95E); experiment: ISRE reporter assay with STING co-transfection in HEK293T cells
human STING R95K = human STING R95K (Homo sapiens, UniProt Q86WV6, R95K); experiment: as above
wild-type hSTING-GFP = wild-type hSTING-GFP (Homo sapiens, UniProt Q86WV6); experiment: STING translocation/aggregate (puncta) assay in HEK293T cells; assay type: cell-based; conditions: 50 μM, overnight
human STING R238A = human STING R238A (Homo sapiens, UniProt Q86WV6, R238A); experiment: ISRE reporter assay with STING co-transfection in HEK293T cells; conditions: for ISRE reporter activity, mean: STING R238A
human STING R238A, sequence (Q86WV6 whole entry R238A): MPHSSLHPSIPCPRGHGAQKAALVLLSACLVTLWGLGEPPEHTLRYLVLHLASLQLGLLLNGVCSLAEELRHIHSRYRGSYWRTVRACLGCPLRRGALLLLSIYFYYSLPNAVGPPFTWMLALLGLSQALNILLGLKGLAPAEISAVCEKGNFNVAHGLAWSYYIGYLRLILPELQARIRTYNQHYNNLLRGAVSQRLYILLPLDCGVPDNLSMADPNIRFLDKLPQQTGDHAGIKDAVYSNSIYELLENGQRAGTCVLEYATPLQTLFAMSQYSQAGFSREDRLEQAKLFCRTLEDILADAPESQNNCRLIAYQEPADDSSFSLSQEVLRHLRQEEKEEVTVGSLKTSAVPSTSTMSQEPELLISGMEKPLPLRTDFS

wild-type hSTING-GFP, sequence (Q86WV6 whole entry): as the sequence (Q86WV6 whole entry R238A) above, with A238R counted along it
human STING R95E, sequence (Q86WV6 whole entry R95E): as the sequence (Q86WV6 whole entry R238A) above, with R95E, A238R counted along it
human STING R95K, sequence (Q86WV6 whole entry R95K): as the sequence (Q86WV6 whole entry R238A) above, with R95K, A238R counted along it

Structure (SMILES): COc1cc(C(=O)O)ccc1NCc1ccc(C2(C(C)(C)C)OCC(C)(C)CO2)cc1 [NVS-STG2]
- STING activation in words (human STING R95E): essentially irresponsive
- STING activation in words (human STING R95K): partially active
- puncta-like structure formation in words (wild-type hSTING-GFP): only the wild-type was responsive
- STING activation in words (human STING R238A; R238A): maintained full agonist activity
- ISRE reporter activity, mean (human STING R238A; Log[μM] 0.267606): 22.8148
- ISRE reporter activity, mean (human STING R238A; Log[μM] 0.744728): 30.7761
- ISRE reporter activity, mean (human STING R238A; Log[μM] 1.22185): 19.5642
- ISRE reporter activity, mean (human STING R238A; Log[μM] 1.69897): 5.793
- ISRE reporter activity, mean (human STING R238A; Log[μM] -0.209515): 16.4448
- ISRE reporter activity, mean (human STING R238A; Log[μM] -0.686637): 8.4
- ISRE reporter activity, mean (human STING R238A; Log[μM] -1.16376): 4.954
- ISRE reporter activity, mean (human STING R238A; Log[μM] -4.30103): 2.802
